Laboratory results: PMC4769088, “Antifungal Activity and Action Mechanism of Histatin 5-Halocidin Hybrid Peptides against Candida ssp” (PLoS ONE, 2016)
Where a SMILES comes first, the peptide text is derived from it. Bridges are numbered along the chain shown (N, C = ends). Roman numbers before positions name the chains, in order. Where no end group is shown, it is not given here.

Columns and labels:
Candida cells = test: Candidacidal activity in energy depleted (azide) cells; assay type: cell-based, Candida albicans; conditions: cells pre-incubated for 60 min in 5 mM NaN3 at 30°C, colony count assay
Experimental: The candidacidal activities of the peptides were tested by using standard microdilution plate assays, radial diffusion assays and broth dilution assay slightly modified from the procedure recommended by the National Committee for Clinical Laboratory Standards. For the candidacidal assays, C. albicans cells were grown in YPD medium and washed twice with 10 mM sodium phosphate buffer (NaPB; Na2HPO4, NaH2PO4, pH 7.4). The cells (1 x 10^6) were then mixed with different concentrations of peptides and incubated at 30°C with constant shaking for 60 min. For energy depletion experiments, cells were pre-incubated with 10 mM NaPB containing 5 mM NaN3 at 30°C for 60 min before the addition of peptides. The cell suspensions were diluted in 10 mM NaPB and aliquots of 500 cells were spread onto YPD agar plates then incubated for 24 h at 30°C to visualize the surviving colonies. Cell survival was expressed as a percentage of that for the control, and the loss of viability was calculated as [1 x (number of colonies from peptide-treated cells/number of colonies from control cells)] x 100. Candidacidal assays were performed in triplicate. For the radial diffusion assay, C. albicans cells were grown in YPD medium overnight and washed twice with 10 mM NaPB. Washed yeast-phase C. albicans cells (1 x 10^6 CFU) were trapped in thin underlay gels containing 9 mM sodium phosphate, 1 mM sodium citrate buffer, 1% (wt/vol) agarose (A6013; Sigma), and 0.3 mg of Sabouraud dextrose broth (Difco)/ml. After incubation at 37°C for 3 h, a 10 ml overlay gel of 1% agarose and 6% Sabouraud dextrose broth was poured on the underlay gel and then the plates were incubated overnight at 37°C. The clear-zone diameters were measured to the nearest 0.1 mm and graphed against the peptide concentration. Zone diameters were expressed in units (0.1 mm = 1 unit). For the broth dilution assay, the Candida strains were cultured in LYM broth for 18 h at 30°C. The numbers of yeasts were counted using a hemocytometer. Stock peptide solutions were prepared to a concentration of 320 μg/ml in distilled water, and were then serially diluted twofold, to 5 μg/ml. 100 μl aliquots of the diluted culture media containing candida cells (1 x 10^3) were dispensed into the wells of 96-well polypropylene microtiter plates (Costar 3879, Corning, NY), to which peptide solution (11 μl) was then added. In the experiments conducted to assess the candidacidal activity of peptides in the presence of salt, we used LYM supplemented with 150 mM NaCl for the culture medium, which was mixed with the peptide solution. The antifungal activities were evaluated after 24 h of incubation at 30°C by the observation of visible turbidity the wells. The MIC values were expressed as intervals (a–b), with a representing the highest tested concentration at which microbes continue to grow, and b representing the lowest concentration at which growth inhibition could be detected.
To confirm the killing effect of the peptides, washed Candida cells (1 × 10^7 cells/ml) were treated with the peptides and propidium iodide (PI) was added. For energy depletion experiments, cells were pre-incubated with 10 mM NaPB containing 5 mM NaN3 at 30°C for 60 min before the addition of peptides. Propidium iodide (PI) uptake was measured using a multi reader and calculated with the formula [propidium iodide (PI) uptake value of peptide-treated cells—propidium iodide (PI) value of control cells]
Fig 6 The effects of azide on killing activity of peptides. […]

Candida albicans cells = test: Confocal microscopy localization and FITC-peptide/PI uptake assay; assay type: cell-based; conditions: FITC-peptides and propidium iodide uptake assay, measured for 60 min
Experimental: To confirm the killing effect of the peptides, washed Candida cells (1 × 10^7 cells/ml) were treated with the peptides and propidium iodide (PI) was added. For energy depletion experiments, cells were pre-incubated with 10 mM NaPB containing 5 mM NaN3 at 30°C for 60 min before the addition of peptides. Propidium iodide (PI) uptake was measured using a multi reader and calculated with the formula [propidium iodide (PI) uptake value of peptide-treated cells—propidium iodide (PI) value of control cells] C. albicans cells were attached to concanavalin A (Sigma, 1 mg/ml solution in water) coated coverglass in chambered wells (Lab-Tek II). Cells (1 x 10^6) were deposited in each well, and 1 ml of 10 mM NaPB containing 5 μg PI (Sigma) and FITC-labeled peptides (Final concentration 10 μg/ml) were added to the chamber. Confocal images were acquired with an Olympus Fluoview FV10i-DOC (Olympus, Tokyo, Japan). ImageJ software was used for image acquisition and analysis.  Fig 5 Localizations of FITC-peptides in Candida albicans cells. C. albicans cells were incubated for 10 minutes with 10 μg/ml of FITC-peptides and visualized by confocal microscopy. […] FITC-peptides and PI uptake was measured for 60 min in Perkin Elmer 2030 reader (VictorX 3).

Molecule	antimicrobial activities in energy depleted cells (Candida cells)	FITC intensity in Candida cells (Candida albicans cells)
CC(C)C[C@H](NC(=O)[C@@H](N)Cc1c[nH]c2ccccc12)C(=O)N[C@@H](CC(N)=O)C(=O)N[C@@H](C)C(=O)N[C@@H](CCCCN)C(=O)N[C@@H](CCCNC(=N)N)C(=O)N[C@@H](Cc1c[nH]cn1)C(=O)N[C@@H](Cc1c[nH]cn1)C(=O)NCC(=O)N[C@@H](Cc1ccc(O)cc1)C(=O)N[C@@H](CCCCN)C(=O)N[C@@H](CSSC[C@H](NC(=O)[C@H](CCCCN)NC(=O)[C@H](Cc1ccc(O)cc1)NC(=O)CNC(=O)[C@H](Cc1c[nH]cn1)NC(=O)[C@H](Cc1c[nH]cn1)NC(=O)[C@H](CCCNC(=N)N)NC(=O)[C@H](CCCCN)NC(=O)[C@H](C)NC(=O)[C@H](CC(N)=O)NC(=O)[C@H](CC(C)C)NC(=O)[C@@H](N)Cc1c[nH]c2ccccc12)C(=O)N[C@@H](CCCCN)C(=O)N[C@@H](Cc1ccccc1)C(=O)N[C@@H](Cc1c[nH]cn1)C(N)=O)C(=O)N[C@@H](CCCCN)C(=O)N[C@@H](Cc1ccccc1)C(=O)N[C@@H](Cc1c[nH]cn1)C(N)=O [di-WP2] (I: H-WLNAKRHHGYKCKFH-NH2 / II: H-WLNAKRHHGYKCKFH-NH2; disulfide I:12-II:12 (inferred); N-terminus assumed)	not inhibited	
CC(C)C[C@H](NC(=O)CNC(=O)[C@H](Cc1c[nH]cn1)NC(=O)[C@H](Cc1c[nH]cn1)NC(=O)[C@H](CCCNC(=N)N)NC(=O)[C@H](CCCCN)NC(=O)[C@H](C)N)C(=O)N[C@@H](CC(N)=O)C(=O)N[C@@H](CSSC[C@H](NC(=O)[C@H](CC(N)=O)NC(=O)[C@H](CC(C)C)NC(=O)CNC(=O)[C@H](Cc1c[nH]cn1)NC(=O)[C@H](Cc1c[nH]cn1)NC(=O)[C@H](CCCNC(=N)N)NC(=O)[C@H](CCCCN)NC(=O)[C@H](C)N)C(=O)N[C@@H](C)C(=O)N[C@@H](CCCCN)C(=O)N[C@@H](Cc1ccccc1)C(=O)N[C@@H](Cc1c[nH]cn1)C(N)=O)C(=O)N[C@@H](C)C(=O)N[C@@H](CCCCN)C(=O)N[C@@H](Cc1ccccc1)C(=O)N[C@@H](Cc1c[nH]cn1)C(N)=O [di-PH2] (I: H-AKRHHGLNCAKFH-NH2 / II: H-AKRHHGLNCAKFH-NH2; disulfide I:9-II:9 (inferred); N-terminus assumed)	significantly reduced	increased in a time dependent manner
CC(C)C[C@H](NC(=O)CNC(=O)[C@H](Cc1c[nH]cn1)NC(=O)[C@H](Cc1c[nH]cn1)NC(=O)[C@H](CC(C)C)NC(=O)[C@H](CC(C)C)NC(=O)[C@H](C)NC(=O)[C@H](CC(N)=O)NC(=O)[C@H](CC(C)C)NC(=O)[C@@H](N)Cc1c[nH]c2ccccc12)C(=O)N[C@@H](CC(N)=O)C(=O)N[C@@H](CSSC[C@H](NC(=O)[C@H](CC(N)=O)NC(=O)[C@H](CC(C)C)NC(=O)CNC(=O)[C@H](Cc1c[nH]cn1)NC(=O)[C@H](Cc1c[nH]cn1)NC(=O)[C@H](CC(C)C)NC(=O)[C@H](CC(C)C)NC(=O)[C@H](C)NC(=O)[C@H](CC(N)=O)NC(=O)[C@H](CC(C)C)NC(=O)[C@@H](N)Cc1c[nH]c2ccccc12)C(=O)N[C@@H](C)C(=O)N[C@@H](CCCCN)C(=O)NCC(=O)N[C@H](C(=O)N[C@@H](CC(C)C)C(=O)N[C@@H](C)C(N)=O)C(C)C)C(=O)N[C@@H](C)C(=O)N[C@@H](CCCCN)C(=O)NCC(=O)N[C@H](C(=O)N[C@@H](CC(C)C)C(=O)N[C@@H](C)C(N)=O)C(C)C [di-18Hc, reference compound] (I: H-WLNALLHHGLNCAKGVLA-NH2 / II: H-WLNALLHHGLNCAKGVLA-NH2; disulfide I:12-II:12 (inferred); N-terminus assumed)	not inhibited	
AKRHHGYKRKFH-NH2 [P113]	significantly reduced	increased in a time dependent manner
C[C@H](NC(=O)[C@H](Cc1c[nH]cn1)NC(=O)[C@H](CO)NC(=O)[C@@H](N)CC(=O)O)C(=O)N[C@@H](CCCCN)C(=O)N[C@@H](CCCNC(=N)N)C(=O)N[C@@H](Cc1c[nH]cn1)C(=O)N[C@@H](Cc1c[nH]cn1)C(=O)NCC(=O)N[C@@H](Cc1ccc(O)cc1)C(=O)N[C@@H](CCCCN)C(=O)N[C@@H](CCCNC(=N)N)C(=O)N[C@@H](CCCCN)C(=O)N[C@@H](Cc1ccccc1)C(=O)N[C@@H](Cc1c[nH]cn1)C(=O)N[C@@H](CCC(=O)O)C(=O)N[C@@H](CCCCN)C(=O)N[C@@H](Cc1c[nH]cn1)C(=O)N[C@@H](Cc1c[nH]cn1)C(=O)N[C@@H](CO)C(=O)N[C@@H](Cc1c[nH]cn1)C(=O)N[C@@H](CCCNC(=N)N)C(=O)NCC(=O)N[C@@H](Cc1ccc(O)cc1)C(=O)O [Hst 5, Histatin 5]	significantly reduced	increased in a time dependent manner
